In US6040338A, “N,n-bis(sulfonyl)hydrazines useful as antineoplastic agents” (Yale University, priority 1997, dated 2000):
Entries after “also recorded” stand apart in the source; their conditions may differ. Where a name gives a salt, the structure may show the parent alone.

Key:
GSH/GST = assay: Relative rate of activation by GSH/GST in vitro; format: in vitro ADME; details: GSH 1 mM, GST 400 μg/ml; for Relative Activation Rate by GSH/GST: 1 mM compound, compound 6 = 100
Experimental: When R^3 is a methyl group, the rate of activation by GSH/GST is highly dependent upon the nature of the 2-alkoxy- or 2-aryloxycarbonyl moiety at the R^4 position.
The rate of activation of 2-(2-bromoethoxy)carbonyl-1,2-bis(methylsulfonyl)-1-methylhydrazine (compound 8) was elevated approximately 18-fold in vitro by the presence of GSH (1 mM) and GST (400 μg/ml), compared to buffer alone.

L1210 leukemia = assay: Survival time and body weight of mice bearing the L1210 leukemia; format: in vivo, mice (CD2 F1); details: for % 60-day survivors / Av Δ wt (average percent change in body weight from onset to termination of therapy): Table 4; for % 60-day survivors: i.p. once daily for 6 days at optimum daily dose (30 mg/kg for 10d-g); for Av Δ wt (average percent change in body weight from onset to termination of therapy): i.p. once daily for 6 days at optimum daily dose (10a 60, 10b 25, 10c 12.5, 10d-h 30 mg/kg); for % Body Weight Change / Average Survival / T/C / Long Term Survival: Table 5; for Long Term Survival: survivors/animals
Experimental: The ascites cell form of leukemia L1210 was obtained from the Frederick Cancer Research Facility, Division of Cancer Treatment Tumor Repository of the National Cancer Institute, and was maintained by serial passage in tissue culture. Every 8 weeks, tumor cells were injected intraperitoneally into 5 donor CD2 F1 mice 8-10 weeks of age and were allowed to grow for 7 days. The peritoneal fluid was withdrawn, and the suspension was centrifuged for 5 min at 1600×g. The supernatant was decanted, and 10^5 cells/ml were seeded into 10 ml of RPMI 1640 medium supplemented with 10% fetal bovine serum and 1% L-glutamine (200 mM) and once again maintained in culture. To assay for antitumor activity, 0.1 ml of the cell suspension containing 10^5 leukemia cells was injected into each recipient mouse. […] Each drug was administered intraperitoneally as a solution in 100% dimethyl sulfoxide, in a volume not exceeding 25 μl. […] Mice were weighed during the course of the experiments, and the percentage change in body weight from onset to termination of therapy was used as an indication of drug toxicity. Determination of the sensitivity of neoplasms to these agents was based upon the prolongation of survival time afforded by the drug treatments.
The antitumor activity of compounds 10a-h and 16 were assessed in mice bearing the L1210 leukemia. The results of these tests are summarized in Tables 4 and 5 which show the effects of 2-alkoxycarbonyl- and 2-aryloxycarbonyl-1,2-bis(methylsulfonyl)-1-(2-chloroethyl)hydrazines on the survival time of mice bearing the L1210 leukemia.
In Table 4, the optimum daily dose was administered once per day for six consecutive days, beginning 24 hours after tumor implantation, with 5-10 mice being used per group. In Table 5, multiple dosages of compound 16 are indicated. "Av Δ wt" refers to the average percent change in body weight from onset to termination of therapy. "% T/C" refers to the average survival time of treated/control mice×100. Cures (60-day survivors) are listed separately and are not included in this calculation.

[1] = Activation by hydrolysis in phosphate buffer; format: physicochemical; details: 1 mM phosphate buffer, pH 7.4, 37° C.
Experimental: (§1) The rates of activation of compounds 10a-h were measured in 1 mM phosphate buffer (pH 7.4, 37° C.) alone, 1 mM phosphate buffer containing 5 mM GSH (pH 7.4, 37° C.), and in 1 mM phosphate buffer containing 5 mM GSH and 17.5 U/ml of GST (pH 7.4, 37° C.) (Table 3).

GST = assay: Activation by GST-catalyzed thiolysis; format: in vitro ADME; details: 1 mM phosphate buffer, 5 mM GSH, 17.5 U/ml GST, pH 7.4, 37° C.
Experimental: as §1

[2] = Activation by thiolysis (GSH); format: in vitro ADME; details: 1 mM phosphate buffer, 5 mM GSH, pH 7.4, 37° C.
Experimental: as §1

[3] = tested on: EMT6 mammary carcinoma cells; assay: Colony-forming assay, EMT6 cells under hypoxic or aerobic conditions; format: cell-based, mouse; details: 1 hr
Experimental: The ability of compounds 10h, 11, 12, and 14 to exert preferential toxicity to hypoxic cells was evaluated using the EMT6 mammary carcinoma by methodology described previously (Rockwell, S., Keyes, S. R., and Sartorelli, A. C. Rad. Res. 116: 100-113 (1988); Keyes, S. R., Rockwell, S., and Sartorelli, A. C. Cancer Res. 45: 213-216 (1985)). Briefly, exponentially growing monolayers of EMT6 (or CHO-K1/dhfr clone) were exposed to a continuously flowing 95% N2 /5% CO2 humidified atmosphere for 2 h to produce radiobiologic hypoxia. Parallel flasks were maintained similarly in humidified 95% air/5% CO2. Without breaking the hypoxia, cells were exposed to various concentrations of the test agent for 1 hr. Cell survival was then measured by colony formation.
The cytotoxicity of compound 10h was evaluated against EMT6 mouse mammary carcinoma cells in vitro under aerobic and hypoxic conditions using the colony-forming assay described above. FIG. 1 depicts the survival of EMT6 cells exposed to various concentrations of compound 10h for 1 hr under hypoxic or aerobic conditions in vitro. Points are the geometric means of two or more independent determinations of surviving fractions. The SEMs are shown where n≥3 and where the error is larger than the point size. Open triangles represent aerobic data points and filled triangles represent hypoxic data points.
Compound 12 was evaluated for its ability to exert preferential toxicity to hypoxic EMT6 cells relative to their aerobic counterparts. […] Points are geometric means of two or more independent determinations of surviving fractions. The SEMs are shown where n≥3 and where the error is larger than the point size. Open triangles are aerobic data points, and filled triangles are hypoxic data points. […] Points are means of duplicate determinations. Open triangles are parental-aerobic; filled triangles are parental-hypoxic; open circles are NADPH:cytochrome P450 reductase-transfected-aerobic; filled circles are NADPH:cytochrome P450 reductase-transfected-hypoxic.

host animals = details: in vivo; cited from earlier work
tumor = details: in vivo; cited from earlier work

With `CCOC(=O)N(N(C)S(C)(=O)=O)S(C)(=O)=O` [Compound 7, 1,2-Bis(methylsulfonyl)-2-(ethoxycarbonyl)-1-methylhydrazine] the “Relative Activation Rate by GSH/GST” value (GSH/GST) was 30.
With `COc1ccc(OC(=O)N(N(C)S(C)(=O)=O)S(C)(=O)=O)cc1` [Compound 9, 1,2-Bis(methylsulfonyl)-2-[(4-methoxyphenoxy)carbonyl]-1-methylhydrazine] the “Relative Activation Rate by GSH/GST” value (GSH/GST) was 1,700.
With `CN(N(C(=O)OCCBr)S(C)(=O)=O)S(C)(=O)=O` [Compound 8, 1,2-Bis(methylsulfonyl)-2-(2-bromoethoxycarbonyl)-1-methylhydrazine] the “Relative Activation Rate by GSH/GST” value (GSH/GST) was 300 and the “elevation of rate of activation by GSH and GST compared to buffer alone” value (GSH/GST; in vitro) was “approximately 18 fold”.
For `COc1ccc(OC(=O)N(N(CCCl)S(C)(=O)=O)S(C)(=O)=O)cc1` [Compound 10g, 1,2-Bis(methylsulfonyl)-1-(2-chloroethyl)-2-[(4-methoxyphenoxy)carbonyl]hydrazine], the “% 60-day survivors” value (L1210 leukemia) was 40%, the “Av Δ wt (average percent change in body weight from onset to termination of therapy)” value (L1210 leukemia) was -2.5% and the “Calculated Activation Rate due to Hydrolysis” value [1] was 0.14 nmol/mL/min. The “Calculated Activation Rate due to Catalyzed Thiolysis (5 mM GSH + 17.5 U/ml GST)” value (GST) was 1.80 nmol/mL/min and the “Calculated Activation Rate due to Thiolysis (5 mM GSH)” value [2] was 0.41 nmol/mL/min.
With `CC(OC(=O)N(N(CCCl)S(C)(=O)=O)S(C)(=O)=O)c1ccc([N+](=O)[O-])cc1` (stereo not shown) [Compound 14, 1,2-Bis(methylsulfonyl)-1-(2-chloroethyl)-2-[[1-(4-nitrophenyl)ethoxy]carbonyl]hydrazine] the “toxicity to aerobic EMT6 cells compared with compound 10h (in words)” value ([3]; aerobic (FIG. 7 versus FIG. 1)) was “less toxic to aerobic EMT6 cells than compound 10h” and the “toxicity to hypoxic EMT6 cells compared with compound 10h (in words)” value ([3]; hypoxic (FIG. 7 versus FIG. 1)) was “essentially the same as that of compound 10h”.
With `CS(=O)(=O)N(CCCl)N(C(=O)Oc1ccccc1)S(C)(=O)=O` [Compound 10d, 1,2-Bis(methylsulfonyl)-1-(2-chloroethyl)-2-(phenoxycarbonyl)hydrazine] the “% 60-day survivors” value (L1210 leukemia) was 40%, the “Av Δ wt (average percent change in body weight from onset to termination of therapy)” value (L1210 leukemia) was -1.0% and the “Calculated Activation Rate due to Hydrolysis” value [1] was 0.06 nmol/mL/min. The “Calculated Activation Rate due to Catalyzed Thiolysis (5 mM GSH + 17.5 U/ml GST)” value (GST) was 1.80 nmol/mL/min and the “Calculated Activation Rate due to Thiolysis (5 mM GSH)” value [2] was 0.37 nmol/mL/min.
For `Cc1ccc(OC(=O)N(N(CCCl)S(C)(=O)=O)S(C)(=O)=O)cc1` [Compound 10e, 1,2-Bis(methylsulfonyl)-1-(2-chloroethyl)-2-[(4-tolyloxy)carbonyl]hydrazine], the “% 60-day survivors” value (L1210 leukemia) was 20%, the “Av Δ wt (average percent change in body weight from onset to termination of therapy)” value (L1210 leukemia) was -3.0% and the “Calculated Activation Rate due to Hydrolysis” value [1] was 0.02 nmol/mL/min. The “Calculated Activation Rate due to Catalyzed Thiolysis (5 mM GSH + 17.5 U/ml GST)” value (GST) was 1.52 nmol/mL/min and the “Calculated Activation Rate due to Thiolysis (5 mM GSH)” value [2] was 0.45 nmol/mL/min.
In the case of `COC(=O)N(N(CCCl)S(C)(=O)=O)S(C)(=O)=O` [Compound 10a, 1,2-Bis(methylsulfonyl)-1-(2-chloroethyl)-2-(methoxycarbonyl)hydrazine], the “Av Δ wt (average percent change in body weight from onset to termination of therapy)” value (L1210 leukemia) is reported as -10.9%, the “Calculated Activation Rate due to Hydrolysis” value [1] is reported as 0.03 nmol/mL/min and the “Calculated Activation Rate due to Catalyzed Thiolysis (5 mM GSH + 17.5 U/ml GST)” value (GST) is reported as 0.00 nmol/mL/min. For the same compound, the “Calculated Activation Rate due to Thiolysis (5 mM GSH)” value [2] was 0.02 nmol/mL/min.
For `CS(=O)(=O)N(CCCl)N(C(=O)NCCCl)S(C)(=O)=O` [Compound 3], the “host toxicity (in words)” value (host animals) is given as “considerably less toxic to host animals than compound 2” and the “antitumor/antineoplastic activity (in words)” value (tumor) is given as “broad-spectrum antitumor activity”.
For `CS(=O)(=O)N(CCCl)N(C(=O)OCCCl)S(C)(=O)=O` [Compound 10b, 1,2-Bis(methylsulfonyl)-1-(2-chloroethyl)-2-(2-chloroethoxycarbonyl)hydrazine], the “Av Δ wt (average percent change in body weight from onset to termination of therapy)” value (L1210 leukemia) was -10.7%, the “Calculated Activation Rate due to Hydrolysis” value [1] was 0.02 nmol/mL/min and the “Calculated Activation Rate due to Catalyzed Thiolysis (5 mM GSH + 17.5 U/ml GST)” value (GST) was 0.08 nmol/mL/min. For the same compound, the “Calculated Activation Rate due to Thiolysis (5 mM GSH)” value [2] was 0.02 nmol/mL/min.
In the case of `CS(=O)(=O)N(CCCl)N(C(=O)OCOP(=O)(O)O)S(C)(=O)=O` [Compound 16, triethanolamine salt of the free acid acid of O-dibenzylphosphate-methyl carbamate], the “% Body Weight Change” value (L1210 leukemia; multiple dose 6 × 10 mg/kg) is reported as -3.6%, the “Average Survival” value (L1210 leukemia; multiple dose 6 × 10 mg/kg) is reported as 14.7 days and the T/C (L1210 leukemia; multiple dose 6 × 10 mg/kg) is reported as 184%. For the same compound, the “Long Term Survival” value (L1210 leukemia; multiple dose 6 × 10 mg/kg) was 2/5, the “% Body Weight Change” value (L1210 leukemia; multiple dose 6 × 20 mg/kg) was “+2.5%” and the “Average Survival” value (L1210 leukemia; multiple dose 6 × 20 mg/kg) was 19.5 days. The T/C (L1210 leukemia; multiple dose 6 × 20 mg/kg) was 244%, the “Long Term Survival” value (L1210 leukemia; multiple dose 6 × 20 mg/kg) was 3/5 and the “% Body Weight Change” value (L1210 leukemia; multiple dose 6 × 40 mg/kg) was “+3.7%”. The “Long Term Survival” value (L1210 leukemia; multiple dose 6 × 40 mg/kg) was 5/5, the “% Body Weight Change” value (L1210 leukemia; multiple dose 6 × 60 mg/kg) was -23.2% and the “Average Survival” value (L1210 leukemia; multiple dose 6 × 60 mg/kg) was 11.0 days. The T/C (L1210 leukemia; multiple dose 6 × 60 mg/kg) was 138%, the “Long Term Survival” value (L1210 leukemia; multiple dose 6 × 60 mg/kg) was 3/5 and the “activity against the L1210 leukemia (in words)” value (L1210 leukemia; i.p. once daily for 6 days) was “significant activity against the L1210 leukemia tumor; also recorded: significant antitumor activity”.
In the case of `CS(=O)(=O)N(CCCl)N(C(=O)OCc1ccccc1)S(C)(=O)=O` [Compound 11, 2-Benzyloxycarbonyl-1,2-bis(methylsulfonyl)-1-(2-chloroethyl)hydrazine], the “toxicity to EMT6 cells, aerobic versus hypoxic (in words)” value ([3]; hypoxic or aerobic (FIG. 2)) is reported as “essentially equitoxic to EMT6 cells under both conditions of oxygenation”.
In the case of `CS(=O)(=O)N(CCCl)N(C(=O)Oc1ccc(Cl)cc1)S(C)(=O)=O` [Compound 10f, 1,2-Bis(methylsulfonyl)-1-(2-chloroethyl)-2-[(4-chlorophenoxy)carbonyl]hydrazine], the “% 60-day survivors” value (L1210 leukemia) is reported as 80%, the “Av Δ wt (average percent change in body weight from onset to termination of therapy)” value (L1210 leukemia) is reported as -1.1% and the “Calculated Activation Rate due to Hydrolysis” value [1] is reported as 0.06 nmol/mL/min. The “Calculated Activation Rate due to Catalyzed Thiolysis (5 mM GSH + 17.5 U/ml GST)” value (GST) was 5.33 nmol/mL/min and the “Calculated Activation Rate due to Thiolysis (5 mM GSH)” value [2] was 0.92 nmol/mL/min.
In the case of `CC(=O)N(N(CCCl)S(C)(=O)=O)S(C)(=O)=O` [Compound 4], the “host toxicity (in words)” value (host animals) is given as “considerably less toxic to host animals than compound 2” and the “antitumor/antineoplastic activity (in words)” value (tumor) is given as “broad-spectrum antitumor activity”.
In the case of `C=COC(=O)N(N(CCCl)S(C)(=O)=O)S(C)(=O)=O` [Compound 10c, 1,2-Bis(methylsulfonyl)-1-(2-chloroethyl)-2-(vinyloxycarbonyl)hydrazine], the “Av Δ wt (average percent change in body weight from onset to termination of therapy)” value (L1210 leukemia) is reported as -12.4%, the “Calculated Activation Rate due to Hydrolysis” value [1] is reported as 0.07 nmol/mL/min and the “Calculated Activation Rate due to Catalyzed Thiolysis (5 mM GSH + 17.5 U/ml GST)” value (GST) is reported as 4.70 nmol/mL/min. For the same compound, the “Calculated Activation Rate due to Thiolysis (5 mM GSH)” value [2] was 2.07 nmol/mL/min.
